Reference: ChEMBL document CHEMBL1129930, “Analogues of methotrexate in rheumatoid arthritis. 2. Effects of 5-deazaaminopterin, 5,10-dideazaaminopterin, and analogues on type II collagen-induced arthritis in mice” (J Med Chem, 1997)

Legend:
Mus musculus [1] = assay: Tested for antiinflammatory activity on mouse type II collagen arthritis as Paw swelling* of all animals in each group on day 23 at intraperitoneal dose of 12 mg/kg; assay type: functional
Mus musculus [2] = assay: Tested for antiinflammatory activity on mouse type II collagen arthritis as Paw swelling* of all animals in each group on day 23 at intraperitoneal dose of 6 mg/kg; assay type: functional
L1210 = assay: Concentration required to inhibit the growth of L1210 cells.; assay type: functional, cell-based; conditions: Mus musculus
Mus musculus [3] = assay: Tested for antiinflammatory activity on mouse type II collagen arthritis as Paw swelling* of all animals in each group on day 23 at intraperitoneal dose of 18 mg/kg; assay type: functional
Mus musculus [4] = assay: Incidence of disease (mouse type II collagen) was scored as the percentage of animals within each experimental group that exhibited joint or limb inflammation on day 37 at intraperitoneal of dose 12 mg/kg; assay type: functional
Mus musculus [5] = assay: Incidence of disease (mouse type II collagen) was scored as the percentage of animals within each experimental group that exhibited joint or limb inflammation on day 44 at intraperitoneal of dose 12 mg/kg; assay type: functional
Mus musculus [6] = assay: Tested for antiinflammatory activity on mouse type II collagen arthritis as Paw swelling* of all animals in each group on day 37 at intraperitoneal dose of 6 mg/kg; assay type: functional
Mus musculus [7] = assay: Tested for antiinflammatory activity on mouse type II collagen arthritis as Paw swelling* of all animals in each group on day 44 at intraperitoneal dose of 12 mg/kg; assay type: functional
Mus musculus [8] = assay: Tested for antiinflammatory activity on mouse type II collagen arthritis as Paw swelling* of all animals in each group on day 30 at intraperitoneal dose of 12 mg/kg; assay type: functional
Mus musculus [9] = assay: Incidence of disease (mouse type II collagen) was scored as the percentage of animals within each experimental group that exhibited joint or limb inflammation on day 44 at intraperitoneal of dose 18 mg/kg; assay type: functional
Mus musculus [10] = assay: Incidence of disease (mouse type II collagen) was scored as the percentage of animals within each experimental group that exhibited joint or limb inflammation on day 23 at intraperitoneal dose 18 mg/kg; assay type: functional
Mus musculus [11] = assay: Incidence of disease (mouse type II collagen) was scored as the percentage of animals within each experimental group that exhibited joint or limb inflammation on day 37 at intraperitoneal of dose 6 mg/kg; assay type: functional
Mus musculus [12] = assay: Incidence of disease (mouse type II collagen) was scored as the percentage of animals within each experimental group that exhibited joint or limb inflammation on day 23 at intraperitoneal dose 12 mg/kg; assay type: functional
[13] = Concentration required to inhibit the growth of chang liver cells.; assay type: functional; conditions: Homo sapiens
Mus musculus [14] = assay: Incidence of disease (mouse type II collagen) was scored as the percentage of animals within each experimental group that exhibited joint or limb inflammation on day 30 at intraperitoneal of dose 18 mg/kg; assay type: functional
Mus musculus [15] = assay: Incidence of disease (mouse type II collagen) was scored as the percentage of animals within each experimental group that exhibited joint or limb inflammation on day 30 at intraperitoneal of dose 12 mg/kg; assay type: functional
Mus musculus [16] = assay: Tested for antiinflammatory activity on mouse type II collagen arthritis as Paw swelling* of all animals in each group on day 37 at intraperitoneal dose of 18 mg/kg; assay type: functional
Mus musculus [17] = assay: Tested for antiinflammatory activity on mouse type II collagen arthritis as Paw swelling* of all animals in each group on day 30 at intraperitoneal dose of 6 mg/kg; assay type: functional
Mus musculus [18] = assay: Incidence of disease (mouse type II collagen) was scored as the percentage of animals within each experimental group that exhibited joint or limb inflammation on day 30 at intraperitoneal of dose 6 mg/kg; assay type: functional
Mus musculus [19] = assay: Tested for antiinflammatory activity on mouse type II collagen arthritis as Paw swelling* of all animals in each group on day 30 at intraperitoneal dose of 18 mg/kg; assay type: functional
Mus musculus [20] = assay: Tested for antiinflammatory activity on mouse type II collagen arthritis as Paw swelling* of all animals in each group on day 37 at intraperitoneal dose of 12 mg/kg; assay type: functional
Mus musculus [21] = assay: Incidence of disease (mouse type II collagen) was scored as the percentage of animals within each experimental group that exhibited joint or limb inflammation on day 37 at intraperitoneal of dose 18 mg/kg; assay type: functional
Mus musculus [22] = assay: Tested for antiinflammatory activity on mouse type II collagen arthritis as Paw swelling* of all animals in each group on day 44 at intraperitoneal dose of 18 mg/kg; assay type: functional
Mus musculus [23] = assay: Tested for antiinflammatory activity on mouse type II collagen arthritis as Paw swelling* of all animals in each group on day 44 at intraperitoneal dose of 6 mg/kg; assay type: functional
Mus musculus [24] = assay: Incidence of disease (mouse type II collagen) was scored as the percentage of animals within each experimental group that exhibited joint or limb inflammation on day 23 at intraperitoneal dose 6 mg/kg; assay type: functional
Mus musculus [25] = assay: Incidence of disease (mouse type II collagen) was scored as the percentage of animals within each experimental group that exhibited joint or limb inflammation on day 44 at intraperitoneal of dose 6 mg/kg; assay type: functional
Mus musculus [26] = assay: Incidence of disease (mouse type II collagen) was scored as the percentage of animals within each experimental group that exhibited joint or limb inflammation on day 37 at intraperitoneal dose of 9 mg/kg; assay type: functional
Mus musculus [27] = assay: Incidence of disease (mouse type II collagen) was scored as the percentage of animals within each experimental group that exhibited joint or limb inflammation on day 44 at intraperitoneal dose of 9 mg/kg; assay type: functional
Mus musculus [28] = assay: Incidence of disease (mouse type II collagen) was scored as the percentage of animals within each experimental group that exhibited joint or limb inflammation on day 37 at intraperitoneal dose of 4.5 mg/kg; assay type: functional
Mus musculus [29] = assay: Tested for antiinflammatory activity on mouse type II collagen arthritis as Paw swelling of all animals in each group on day 37 at intraperitoneal dose of 9 mg/kg; assay type: functional
Mus musculus [30] = assay: Incidence of disease (mouse type II collagen) was scored as the percentage of animals within each experimental group that exhibited joint or limb inflammation on day 30 at intraperitoneal dose of 4.5 mg/kg; assay type: functional
Mus musculus [31] = assay: Tested for antiinflammatory activity on mouse type II collagen arthritis as Paw swelling of all animals in each group on day 37 at intraperitoneal dose of 4.5 mg/kg; assay type: functional
Mus musculus [32] = assay: Tested for antiinflammatory activity on mouse type II collagen arthritis as Paw swelling of all animals in each group on day 30 at intraperitoneal dose of 4.5 mg/kg; assay type: functional
Mus musculus [33] = assay: Tested for antiinflammatory activity on mouse type II collagen arthritis as Paw swelling of all animals in each group on day 30 at intraperitoneal dose of 9 mg/kg; assay type: functional
Mus musculus [34] = assay: Incidence of disease (mouse type II collagen) was scored as the percentage of animals within each experimental group that exhibited joint or limb inflammation on day 44 at intraperitoneal dose of 4.5 mg/kg; assay type: functional
Mus musculus [35] = assay: Tested for antiinflammatory activity on mouse type II collagen arthritis as Paw swelling of all animals in each group on day 23 at intraperitoneal dose of 9 mg/kg; assay type: functional
Mus musculus [36] = assay: Incidence of disease (mouse type II collagen) was scored as the percentage of animals within each experimental group that exhibited joint or limb inflammation on day 23 at intraperitoneal dose of 4.5 mg/kg; assay type: functional
Mus musculus [37] = assay: Tested for antiinflammatory activity on mouse type II collagen arthritis as Paw swelling of all animals in each group on day 44 at intraperitoneal dose of 9 mg/kg; assay type: functional
Mus musculus [38] = assay: Incidence of disease (mouse type II collagen) was scored as the percentage of animals within each experimental group that exhibited joint or limb inflammation on day 23 at intraperitoneal dose of 9 mg/kg; assay type: functional
Mus musculus [39] = assay: Tested for antiinflammatory activity on mouse type II collagen arthritis as Paw swelling of all animals in each group on day 44 at intraperitoneal dose of 4.5 mg/kg; assay type: functional
Mus musculus [40] = assay: Incidence of disease (mouse type II collagen) was scored as the percentage of animals within each experimental group that exhibited joint or limb inflammation on day 30 at intraperitoneal dose of 9 mg/kg; assay type: functional
Mus musculus [41] = assay: Tested for antiinflammatory activity on mouse type II collagen arthritis as Paw swelling of all animals in each group on day 23 at intraperitoneal dose of 4.5 mg/kg; assay type: functional

C#CCN(Cc1cnc2nc(N)nc(N)c2c1)c1ccc(C(=O)NC(CCC(=O)O)C(=O)O)cc1 (configuration not stated)
Paw swelling (Mus musculus [1]): 2.17 mm
Paw swelling (Mus musculus [2]): 2.12 mm
IC50 (L1210): 13 nM
Paw swelling (Mus musculus [3]): 2.16 mm
Animals (Mus musculus [4]): 50%
Animals (Mus musculus [5]): 75%
Paw swelling (Mus musculus [6]): 2.46 mm
Paw swelling (Mus musculus [7]): 2.49 mm
Paw swelling (Mus musculus [8]): 2.16 mm
Animals (Mus musculus [9]): 38%
Animals (Mus musculus [10]): 0%
Animals (Mus musculus [11]): 88%
Animals (Mus musculus [12]): 0%
IC50 [13]: 6.3 nM
Animals (Mus musculus [14]): 0%
Animals (Mus musculus [15]): 0%
Paw swelling (Mus musculus [16]): 2.23 mm
Paw swelling (Mus musculus [17]): 2.32 mm
Animals (Mus musculus [18]): 38%
Paw swelling (Mus musculus [19]): 2.13 mm
Paw swelling (Mus musculus [20]): 2.3 mm
Animals (Mus musculus [21]): 38%
Paw swelling (Mus musculus [22]): 2.27 mm
Paw swelling (Mus musculus [23]): 2.65 mm
Animals (Mus musculus [24]): 0%
Animals (Mus musculus [25]): 100%

CCC(Cc1cnc2nc(N)nc(N)c2c1C)c1ccc(C(=O)NC(CCC(=O)O)C(=O)O)cc1 (configuration not stated)
Animals (Mus musculus [26]): 88%
Animals (Mus musculus [27]): 88%
Animals (Mus musculus [28]): 38%
Paw swelling (Mus musculus [29]): 3.09 mm
Animals (Mus musculus [30]): 12%
Paw swelling (Mus musculus [31]): 2.32 mm
Paw swelling (Mus musculus [32]): 2.18 mm
Paw swelling (Mus musculus [33]): 2.45 mm
Animals (Mus musculus [34]): 75%
Paw swelling (Mus musculus [35]): 2.12 mm
Animals (Mus musculus [36]): 0%
Paw swelling (Mus musculus [37]): 2.99 mm
Animals (Mus musculus [38]): 0%
Paw swelling (Mus musculus [39]): 2.68 mm
Animals (Mus musculus [40]): 50%
Paw swelling (Mus musculus [41]): 2.1 mm
